± gives the standard deviation of the averaged measurements.
Experiments:
Assay in all cases: level (log10 ratio to DMSO vehicle control); higher = higher biomarker level / cell amount than vehicle control
[1] = compound: OCC(F)(F)C(F)(F)C(F)(F)C(F)(F)C(F)(F)C(F)(F)CO [1H,1H,8H,8H-Perfluorooctane-1,8-diol] (in DMSO)
Procedure: (§1)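 BioMAP Diversity Plus panel of 12 human primary cell co-culture systems (3C, 4H, LPS, SAg, BT, BF4T, BE3C, CASM3C, HDF3CGF, KF3CT, MyoF, Mphg). Compounds were added 1 h before stimulation and left for 24 h (MyoF 48 h; BT 72 h for soluble read-outs or 6 d for IgG). Biomarkers were read by ELISA, cytotoxicity by SRB, PBMC viability and proliferation by Alamar Blue. Each well value was divided by the mean of 8 DMSO control wells on the same plate and log10 transformed; duplicate blinded samples were tested at 4 concentrations.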

[2] = compound: C=C(C)C(=O)OCCC(F)(F)C(F)(F)C(F)(F)C(F)(F)C(F)(F)C(F)(F)C(F)(F)C(F)(F)F [8:2 Fluorotelomer methacrylate] (in DMSO)
Procedure: as §1

[3] = compound: NS(=O)(=O)C(F)(F)C(F)(F)C(F)(F)C(F)(F)C(F)(F)C(F)(F)C(F)(F)C(F)(F)F [Perfluorooctanesulfonamide] (in DMSO)
Procedure: as §1

[4] = compound: O=C(O)C(F)(OC(F)(F)C(F)(OC(F)(F)C(F)(OC(F)(F)C(F)(F)C(F)(F)F)C(F)(F)F)C(F)(F)F)C(F)(F)F [Perfluoro-(2,5,8-trimethyl-3,6,9-trioxadodecanoic)acid] (in DMSO)
Procedure: as §1

[5] = compound: O=C(O)C(F)(F)C(F)(F)C(F)(F)OC(F)(F)F [Perfluoro(4-methoxybutanoic) acid] (in DMSO)
Procedure: as §1

[6] = compound: OCC(F)(F)C(F)(F)C(F)(F)C(F)F [1H,1H,5H-Perfluoropentanol] (in DMSO)
Procedure: as §1

Perfluorononanoic acid = compound: O=C(O)C(F)(F)C(F)(F)C(F)(F)C(F)(F)C(F)(F)C(F)(F)C(F)(F)C(F)(F)F [Perfluorononanoic acid] (in DMSO)
Procedure: as §1

[7] = compound: O=C(O)C(F)(F)OC(F)(F)C(F)(F)OC(F)(F)C(F)(F)OC(F)(F)C(F)(F)C(F)(F)C(F)(F)F [Perfluoro-3,6,9-trioxatridecanoic acid] (in DMSO); conditions: 6700 nM
Procedure: as §1

Row | Test System | level (log10) ([1]; 6700 nM) | level (log10) ([1]; 20000 nM) | level (log10) ([1]; 60000 nM) | level (log10) ([2]; 6700 nM) | level (log10) ([2]; 20000 nM) | level (log10) ([3]; 6700 nM) | level (log10) ([3]; 20000 nM) | level (log10) ([4]; 1100 nM) | level (log10) ([4]; 3300 nM) | level (log10) ([4]; 10000 nM) | level (log10) ([5]; 6700 nM) | level (log10) ([5]; 20000 nM) | level (log10) ([5]; 60000 nM) | level (log10) ([6]; 6700 nM) | level (log10) ([6]; 20000 nM) | level (log10) ([6]; 60000 nM) | level (log10) (Perfluorononanoic acid; 6700 nM) | level (log10) (Perfluorononanoic acid; 20000 nM) | level (log10) [7]
1 | HDF3CGF:Collagen I | 0.0025 ± 0.012 | 0.025 ± 0.016 | 0.0085 ± 0.035 | -0.0255 ± 0.029 | -0.001 ± 0.083 | 0.08 ± 0.037 | -0.0535 ± 0.046 | 0.027 ± 0.0028 | -0.014 ± 0.051 | 0.0475 ± 0.013 | -0.0125 ± 0.015 | 0.0115 ± 0.049 | 0.033 ± 0.061 | -0.0375 ± 0.039 | -0.0305 ± 0.037 | 0.0585 ± 0.021 | 0.0345 ± 0.005 | -0.0715 ± 0.036 | -0.0565 ± 0.061
2 | HDF3CGF:Collagen III | -0.0175 ± 0.013 | -0.0195 ± 0.0092 | -0.016 ± 0.0057 | -0.032 ± 0.042 | -0.0325 ± 0.067 | -0.0345 ± 0.012 | -0.449 ± 0.019 | -0.064 ± 0.072 | 0.014 ± 0.048 | 0.0695 ± 0.023 | 0.0075 ± 0.033 | 0 ± 0.0099 | -0.007 ± 0.021 | -0.0215 ± 0.036 | -0.0135 ± 0.019 | 0.037 ± 0.027 | -0.0705 ± 0.043 | -0.168 ± 0.02 | -0.236 ± 0.028
3 | HDF3CGF:EGFR | 0.006 ± 0.023 | 0.001 ± 0.018 | -0.0185 ± 0.026 | -0.048 ± 0.071 | 0.0215 ± 0.091 | -0.016 ± 0.014 | -0.171 ± 0.016 | -0.0365 ± 0.15 | -0.113 ± 0.16 | 0.025 ± 0.04 | -0.002 ± 0.072 | 0.02 ± 0.055 | 0.0015 ± 0.053 | -0.0465 ± 0.033 | -0.0025 ± 0.028 | 0.022 ± 0.054 | 0.0115 ± 0.057 | -0.037 ± 0.013 | -0.101 ± 0.023
4 | HDF3CGF:M-CSF | 0.0115 ± 0.029 | 0.015 ± 0.0085 | 0.0535 ± 0.054 | -0.0295 ± 0.019 | -0.093 ± 0.013 | -0.0605 ± 0.012 | -0.507 ± 0.07 | 0.0165 ± 0.0064 | 0.0005 ± 0.033 | -0.03 ± 0.092 | -0.0135 ± 0.0035 | -0.0075 ± 0.005 | 0.0115 ± 0.039 | -0.0405 ± 0.067 | -0.034 ± 0.071 | -0.0205 ± 0.053 | 0.0115 ± 0.025 | -0.028 ± 0.028 | -0.158 ± 0.016
5 | HDF3CGF:MMP-1 | 0.0005 ± 0.013 | -0.0025 ± 0.013 | 0.008 ± 0.0071 | 0.013 ± 0.011 | 0.009 ± 0.018 | 0.0145 ± 0.026 | -0.206 ± 0.096 | 0.029 ± 0.018 | 0.023 ± 0.0028 | -0.0075 ± 0.0021 | -0.0015 ± 0.015 | -0.015 ± 0.0028 | -0.0235 ± 0.0021 | 0.0075 ± 0.005 | 0.007 ± 0.0085 | 0.0105 ± 0.022 | -0.008 ± 0.0099 | -0.012 ± 0.0042 | -0.134 ± 0.054
6 | HDF3CGF:PAI-I | -0.0085 ± 0.0092 | -0.026 ± 0.0057 | -0.023 ± 0.017 | -0.0305 ± 0.052 | -0.0635 ± 0.022 | 0.005 ± 0.033 | -0.45 ± 0.26 | 0.049 ± 0.078 | 0.056 ± 0.076 | 0.062 ± 0.047 | -0.009 ± 0.0042 | -0.0135 ± 0.0078 | -0.001 ± 0.014 | -0.111 ± 0.12 | -0.047 ± 0.16 | -0.0365 ± 0.096 | 0.037 ± 0.062 | 0.0765 ± 0.064 | -0.212 ± 0.0099
7 | HDF3CGF:Proliferation 72hr | -0.04 ± 0.013 | -0.0035 ± 0.026 | -0.102 ± 0.027 | -0.0395 ± 0.028 | -0.043 ± 0.069 | 0.0105 ± 0.036 | -0.58 ± 0.15 | -0.0205 ± 0.011 | 0.038 ± 0.0099 | 0.0395 ± 0.028 | -0.003 ± 0.047 | 0.0295 ± 0.0021 | -0.003 ± 0.031 | -0.023 ± 0.058 | 0.035 ± 0.024 | 0.0065 ± 0.025 | 0.143 ± 0.036 | -0.182 ± 0.24 | -0.827 ± 0.29

— the supplement of paper PMC10331698
